According to US10987319B2, “TFEB activator C1 ameliorates app and tau pathology and rescues cognitive deficits in neurodegenerative diseases” (Hong Kong Baptist University, priority 2018, dated 2021):
Where two headings read alike, the source gives them in different places.

Experiments:
Format in all cases: in vivo
[1] = Distribution of C1 in brain regions, plasma and CSF of rats 30 min after oral dosing; conditions: Sprague-Dawley, rat, SD rats, 30 min after oral 10 mg/kg
Method: Male C57BL/6 mice and Sprague Dawley rats were purchased from Chinese University of Hong Kong, acclimatized in Hong Kong Baptist university animal house for 2 weeks. Animals were kept for 18 h fasting before the experiment. Curcumin analog C1 and curcumin were suspended in 1% CMC-Na at 10 mg/kg, given to animals through oral route at 10 ml/kg dosing volume. Blood (by heart puncture) and brain samples were collected starting from 0.25, 0.5, 1, 2, 4, 6, 8, 12 and 24 h time points (n=3 for each time point) under chloral hydrate anesthesia at 500 mg/kg (I.P. injection). Based on mice pharmacokinetic study, rat blood, brain and cerebrospinal fluids (CSF) were collected at 30 minutes time point (n=4). All blood samples were collected in heparinized tubes. Plasma was collected by centrifuging at 10,000 rpm for 10 minutes at 4° C. Blood, brain and CSF were stored in −80° C. until further analysis.
Cerebrospinal fluid (CSF) was collected by puncturing Cisterna Magna. Briefly, stereotaxic apparatus (Stoelting, Wood Dale, USA) was used for CSF collection. The tip of CSF collection needle (21G) was placed at the center of stereotaxic apparatus ear bars contact and considered it as zero point. Then rats were anaesthetized with chloral hydrate at 500 mg/kg in saline through intra-peritoneal route. Rats were fixed on the stereotaxic apparatus with 3 cm elevated body position. Rat head was positioned at nearly 110° angle between stereotaxic apparatus frame and rat nose. Cisterna magna location was identified by a 3 mm^2 depressed area between the spine and occipital protuberance in mid-sagittal plane, at 10-12 mm approximate distance from ear. The collection needle was inserted into the Cisterna magna from zero point at A−P: −1.5±1 mm, M−L: 0 mm and D−V: not more than 4-6 mm (from the skin surface). The needle was connected to a 1 ml syringe through a silicon tube. By applying a gentle negative pressure through 1 ml syringe, 100 μl of CSF without any blood contamination was collected.
Whole brain and brain parts were homogenized with 2 weight/volumes of PBS (pH=3.2), spiked with 10 μl of internal standard salbutamol (200 ng/ml in methanol). The homogenate was liquid-liquid extracted with 1 ml of ethyl acetate. 50 μl of 0.5M sodium hydroxide was added to the brain homogenate for efficient C1 extraction. After vigorous sonication and vortex mixing, samples were centrifuged at 15,000 RPM for 10 min. The supernatant was collected and vacuum dried. The samples were reconstituted with 100 μl of mobile phase (0.1% formic acid in acetonitrile), vortex mixed and transferred to an amber colored sampler vial with plastic insert.
100 μl of plasma and CSF was mixed with 100 μl of PBS (pH=3.2), 10 μl of 0.05 M sodium hydroxide and spiked with 10 μl of salbutamol (200 ng/ml in methanol). The mixture was liquid-liquid extracted with 500 μl of ethyl acetate. After vigorous sonication and vortex mixing, samples were centrifuged at 15,000 RPM for 10 min at 4° C. The supernatant was collected and vacuum dried. The samples were reconstituted with 100 μl of mobile phase (0.1% formic acid in acetonitrile), vortex mixed and transferred to an amber colored sampler vial with plastic insert.
UPLC 1290 (Agilent technologies, CA, USA) with binary pump, autosampler system, column with thermostat, vacuum degasser and 6460 QQQ Mass spectrometer was used for compound detection. Chromatographic separation was achieved by waters BEH-C18 (1.7 μm, 2.1×50 mm) column maintained at 40° C. […]

5×FAD mice = experiment: Long-term potentiation (TBS, MED64 multi-electrode array) in hippocampal slices of treated mice; conditions: female 5×FAD mice, 10 mg/kg oral 3 months, P<0.001
Method: Heterozygous male 5×FAD mice purchased from Jackson laboratory (#006554) were maintained HKBU animal house at 23±2 OC and 60-15% relative humidity with free access to feed and water ad libitum. Male 5×FAD mice were bred with female wild-type C57BL/6. The produced heterozygous litters were maintained until their age 2 months. At 2 months age tail sample is collected in Non-ionic detergent buffer (50 mM KCL, 10 mM Tris-HCL, 2.5 mM mgCl2, 0.1 mg/ml Gelatin, 0.45% v/v NP-40, 0.45% v/v Tween 20 and 100 μgm/ml Proteinase K). Tail samples were incubated in 55° C. for overnight and denatured at 95° C. for 5 mins. Denatured samples were centrifuged, and supernatant is used for genotyping. Mice tail samples were genotyped using standard PCR protocol by using GoTaq G2 Green Master Mix (M7822), for APP, Forward 5′-[…]-3′ (SEQ ID NO: 81) and reverse, 5′-CGGGGGTCTAGTTCTGCAT-3′ (SEQ ID NO: 82). […]
Brain slice preparation: Wild type and 5× mice treated with or without C1 were cervical dislocated and rapidly brain was removed and placed in oxygenated ice-cold sucrose buffer (213 mM sucrose, 10 mM D-glucose, 2.5 mM KCL, 1.25 mM KH2PO4, 2.5 mM CaCl2, 10 mM MgSO4.7H2O, 75 mM NaCl and […] NaHCO3). […] Slope of each Excitatory Post Synaptic Potential […] (fEPSP) is calculated by using MED64-Quad II system and Mobius MED 64 software.

[2] = Pharmacokinetic study in mice, oral (brain and blood levels by LC/MS/MS); conditions: male, mouse, C57BL/6 mice, oral 10 mg/kg, brain

- concentration at 30 min ([1]; cerebrospinal fluid, read-out: level of C1 in CSF): 102 ± 52.4 ng/mL
- concentration at 30 min ([1]; frontal cortex, read-out: concentration of C1 in the frontal cortex): 58 ± 18.6 ng/g
- concentration at 30 min ([1]; hippocampus, read-out: concentration of C1 in the hippocampus): 68.4 ± 21.7 ng/g
- concentration at 30 min ([1]; plasma, read-out: level of C1 in plasma): 352 ± 21.4 ng/mL
- concentration at 30 min ([1]; striatum, read-out: concentration of C1 in the striatum): 4.69 ± 2.19 ng/g
- Tmax [2]: 30 min
- Cmax ([2]; read-out: maximum concentration (Cmax) in the brain): 1310 ± 89 ng/g
SMILES: COc1ccccc1/C=C/C(=O)/C=C/c1ccccc1OC [Compound C1, 1,5-bis(2-methoxyphenyl)penta-1,4-dien-3-one]
- synaptic plasticity (long-term potentiation induced by TBS, fEPSP slope) vs vehicle (5×FAD mice): significantly restored
